Source: ChEMBL document CHEMBL1153947, “Carbonic anhydrase inhibitors. Inhibition of cytosolic isoforms I, II, III, VII and XIII with less investigated inorganic anions” (Bioorg Med Chem Lett, 2009)
pKi: −log10 of the molar value.

biological target: Carbonic anhydrase 1 (Homo sapiens, UniProt P00915); experiment: Inhibition of human recombinant carbonic anhydrase 1-catalyzed CO2 hydration by stopped flow assay
Sequence (P00915 whole entry): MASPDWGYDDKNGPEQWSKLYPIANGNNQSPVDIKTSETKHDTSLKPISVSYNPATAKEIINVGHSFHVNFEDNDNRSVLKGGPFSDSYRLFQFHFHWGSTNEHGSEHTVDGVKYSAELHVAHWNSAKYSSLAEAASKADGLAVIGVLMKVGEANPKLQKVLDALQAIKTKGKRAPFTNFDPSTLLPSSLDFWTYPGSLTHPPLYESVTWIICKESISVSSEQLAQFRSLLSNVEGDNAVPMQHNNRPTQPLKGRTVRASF

Compound	pKi
CCN(CC)C(=S)S [DITIOCARB SODIUM]	6.10
S=C(S)S [SODIUM CARBONOTRITHIOATE]	5.06
O=S(=O)(O)NS(=O)(=O)O [SODIUM IMINODISULFONATE]	3.51
O=P(O)(O)OP(=O)(O)O [SODIUM PYROPHOSPHATE]	1.59
O=S(=O)(O)OS(=O)(=O)O [SODIUM PYROSULFATE]	3.00
O=[Se](=O)(O)O [SODIUM SELENATE]	0.93
N#C[SeH] [SODIUM SELENOCYANATE]	4.07
O=[Te](=O)(O)O [SODIUM TELLURATE]	3.18

biological target: Carbonic anhydrase 2 (Homo sapiens, UniProt P00918); experiment: Inhibition of human recombinant carbonic anhydrase 2-catalyzed CO2 hydration by stopped flow assay

Compound	pKi
O=S(=O)(O)OS(=O)(=O)O [SODIUM PYROSULFATE]	3.01

biological target: Carbonic anhydrase 7 (Homo sapiens, UniProt P43166); experiment: Inhibition of human recombinant carbonic anhydrase 7-catalyzed CO2 hydration by stopped flow assay
Sequence (P43166 whole entry): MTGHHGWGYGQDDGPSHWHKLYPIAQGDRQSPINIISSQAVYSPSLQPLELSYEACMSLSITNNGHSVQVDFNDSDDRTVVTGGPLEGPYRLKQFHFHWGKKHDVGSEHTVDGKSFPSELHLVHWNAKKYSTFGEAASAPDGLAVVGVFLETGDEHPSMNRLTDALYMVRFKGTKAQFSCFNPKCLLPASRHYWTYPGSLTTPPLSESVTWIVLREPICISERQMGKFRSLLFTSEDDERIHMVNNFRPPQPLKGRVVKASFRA

Compound	pKi
CCN(CC)C(=S)S [DITIOCARB SODIUM]	2.83
S=C(S)S [SODIUM CARBONOTRITHIOATE]	1.44
O=S(=O)(O)NS(=O)(=O)O [SODIUM IMINODISULFONATE]	1.41
O=S(=O)(O)OOS(=O)(=O)O [SODIUM PERSULFATE]	2.51
O=P(O)(O)OP(=O)(O)O [SODIUM PYROPHOSPHATE]	3.06
O=S(=O)(O)OS(=O)(=O)O [SODIUM PYROSULFATE]	3.12
O=[Se](=O)(O)O [SODIUM SELENATE]	0.67
N#C[SeH] [SODIUM SELENOCYANATE]	2.96
O=[Te](=O)(O)O [SODIUM TELLURATE]	3.34

biological target: Carbonic anhydrase 13 (Mus musculus, UniProt Q9D6N1); experiment: Inhibition of mouse recombinant carbonic anhydrase 13-catalyzed CO2 hydration by stopped flow assay
Sequence (Q9D6N1 whole entry): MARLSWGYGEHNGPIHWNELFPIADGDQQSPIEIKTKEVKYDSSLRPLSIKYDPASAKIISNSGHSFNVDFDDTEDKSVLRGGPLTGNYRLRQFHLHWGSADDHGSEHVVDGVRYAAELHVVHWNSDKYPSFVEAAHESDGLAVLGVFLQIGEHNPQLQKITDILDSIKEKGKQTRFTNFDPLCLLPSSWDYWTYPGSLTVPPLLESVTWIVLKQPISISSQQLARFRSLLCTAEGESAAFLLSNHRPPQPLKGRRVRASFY

Compound	pKi
CCN(CC)C(=S)S [DITIOCARB SODIUM]	4.25
S=C(S)S [SODIUM CARBONOTRITHIOATE]	3.37
O=S(=O)(O)NS(=O)(=O)O [SODIUM IMINODISULFONATE]	3.01
O=S(=O)(O)OOS(=O)(=O)O [SODIUM PERSULFATE]	2.37
O=P(O)(O)OP(=O)(O)O [SODIUM PYROPHOSPHATE]	3.14
O=S(=O)(O)OS(=O)(=O)O [SODIUM PYROSULFATE]	3.15
O=[Se](=O)(O)O [SODIUM SELENATE]	0.32
N#C[SeH] [SODIUM SELENOCYANATE]	1.58
O=[Te](=O)(O)O [SODIUM TELLURATE]	3.42
